The results in this text go back to article PMC7552967, “Anti-Melanoma Activities of Artemisone and Prenylated Amino-Artemisinins in Combination With Known Anticancer Drugs” (Frontiers in Pharmacology, 2020).

For orientation: IC50 means the concentration that inhibits the measured activity by half.

Each structure is given as a SMILES string.

One test has as its system HEK293 cells. The test can be described thus: MTT cytotoxicity assay, HEK293. The class given is cell-based. The following applies: Homo sapiens, 24 h exposure, mean ± SD, three biological replicates. An excerpt: The human cell lines TK10 (human kidney adenocarcinoma), UACC62 (human melanoma) and MCF7 (human breast adenocarcinoma) were obtained from the National Cancer Institute (NCI) as part of a panel widely studied for drug screening and molecular target identification. Melanoma (A375) and human embryonic kidney (HEK293) were acquired from the American Type Culture Collection; ATCC® CRL-1619™ and ATCC® CRL-1573™ respectively. The nontumorigenic human immortalized keratinocyte (HaCaT) cells were a kind donation by the School of Anatomical Sciences, Faculty of Health Sciences, University of the Witwatersrand, South Africa. HaCaT cells were chosen as the nonmalignant control due to their ease of propagation, near normal phenotype and general use as an A375 control ([Dwivedi et al., 2015]; [Lewies et al., 2018]). The A375 cell line is a […] cells line with the BRAF mutation frequently used for in vitro drug screening assays for anti-melanoma drugs ([Couto et al., 2019]). All reagents were of analytical grade and were obtained from Merck (Darmstadt, Germany) unless stated otherwise. Cells were cultured in Dulbecco’s modified essential medium (DMEM; Hyclone, GE healthcare, South Logan, UT, USA) containing 10% fetal bovine serum (FBS), 1% penicillin/streptomycin, 1% 200 mM L-Glutamine and 1% nonessential amino acids (Lonza, Basel, Switzerland) at 37°C in a humidified atmosphere of 5% CO2. […]
The growth inhibitory effects of the compounds were tested in the 3-cell line panel consisting of TK10 (renal), UACC62 (melanoma) and MCF7 (breast) cancer cells by Sulforhodamine B (SRB) assay. In addition, activity was also evaluated against HEK293 cells with the 3-(4,5-dimethylthiazol-2-yl)-2,5-diphenyl tetrazolium bromide (MTT) assay ([Mosmann, 1983]). […] The results were expressed as half maximal inhibitory concentrations (IC50) as described before ([Lewies et al., 2018]). […] After incubation, cell viability was determined using a microplate reader (BioTek®, Vermont, USA) at an excitation wavelength of 560 nm and emission wavelength of 630 nm with DMSO measured as a blank. Cell viability was expressed as a percentage relative to the untreated control, which is assumed to be 100% viable. […] Using the MTT assay data, IC50 values were calculated using GraphPad Prism 8. […] The curve was fitted using the log(inhibitor) vs. response function and the IC50 values calculated ([Lewies et al., 2018]). A crude therapeutic index (fold decrease in IC50 value) was calculated as the IC50 of the noncancerous cell-line/IC50 of the cancerous cell line. […] Drug interactions were evaluated for synergism, additivity or antagonism using multiple drug effect analysis, based on the median-principle. Cells were treated with the drug combinations for 24 h and analyzed. […]
For orientation: Formazan colour is commonly taken as a measure of viable cells.

Another test deals with A375 melanoma cells. Kind of test: LDH release membrane integrity assay, A375. The format is cell-based, human. The following applies: for A375 (% LDH release): compounds at their IC50 concentrations, 24 h, combinations 1:1, relative to maximum release; for Fold increase in LDH release: selectivity toward melanoma cell membranes, A375 vs HaCat; for LDH release, result in words: IC50 concentrations, 24 h (Table 3, Figure 6C). An excerpt:
In order to determine cell membrane integrity, the CytoTox-ONE™ Homogeneous Membrane Integrity Assay (Promega, Madison, WO, USA) was employed. This fluorometric assay measures the release of LDH from cells with damaged cell membranes. […] The manufacturer’s instructions were followed to determine the fluorescence at an excitation wavelength of 560 nm and an emission wavelength of 590 nm. In order to calculate the percentage cytotoxicity, the average fluorescent values of the background medium were subtracted from all average fluorescent values of the experimental samples and the positive control. Cytotoxicity is expressed as a percentage relative to the positive control, which is assumed to be responsible for 100% LDH release. The fold increase in LDH release was taken as the indication of the selectivity toward melanoma cell membranes, calculated as the […]. All experiments were performed at least in triplicate and independently repeated. Statistical significant differences were calculated with one-way ANOVA.
Results are expressed relative to the untreated control and the maximum release sample, which was set as having 0% and 100% LDH release respectively. The LDH released from the nonmalignant HaCat cells and the A375 melanoma cells was then used to deduce the selectivity of the compounds against melanoma cell membranes.

Regarding `CC(C)=CCC/C(C)=C/CC/C(C)=C/CN1CCN([C@@H]2O[C@@H]3O[C@@]4(C)CC[C@H]5[C@H](C)CC[C@@H]([C@H]2C)[C@@]35OO4)CC1` [Farnesylpiperazine-DHA 7, farnesylpiperazine-DHA], the IC50 with HEK293 cells amounted to 35.5 ± 1.09 µM. In the test with A375 melanoma cells, the “A375 (% LDH release)” value was 57 ± 1.21% and the “Fold increase in LDH release” value was 3.1.

`C[C@H]1[C@H](N2CCS(=O)(=O)CC2)O[C@@H]2O[C@@]3(C)CC[C@H]4[C@H](C)CC[C@@H]1[C@@]24OO3` [Artemisone 4, artemisone]: in the test with HEK293 cells, the IC50 was 86.7 ± 1.09 µM. Moreover, in the test with A375 melanoma cells, the “LDH release, result in words” value was “did not significantly increase the release of LDH”; the “A375 (% LDH release)” value is given as 27 ± 0.81%; the “Fold increase in LDH release” value stood at 1.4.

On to `C[C@@H]1CC[C@H]2[C@@H](C)C(=O)O[C@@H]3O[C@@]4(C)CC[C@@H]1[C@]32OO4` [Artemisinin 2, artemisinin], for which the IC50 in the test with HEK293 cells amounted to 120.7 ± 1.07 µM. For the same compound, in the test on A375 melanoma cells, the “LDH release, result in words” value was “did not significantly increase the release of LDH”; the “A375 (% LDH release)” value was determined as 24 ± 0.96%; the “Fold increase in LDH release” value is on record as 1.3.

`CC(C)=CCC/C(C)=C/CN1CCN([C@@H]2O[C@@H]3O[C@@]4(C)CC[C@H]5[C@H](C)CC[C@@H]([C@H]2C)[C@@]35OO4)CC1` [Geranylpiperazine-DHA 6, geranylpiperazine-DHA]: in the test with HEK293 cells, the IC50 stood at 24.3 ± 1.15 µM. Moreover, in the test with A375 melanoma cells, the “A375 (% LDH release)” value was 68 ± 0.91% and the “Fold increase in LDH release” value was found to be 4.0.
